Reference: patent publication US10100058B2, “Fused heterocyclic compounds as CaM kinase inhibitors” (Gilead Sciences, Inc., priority 2016, dated 2018)

molecular target: recombinant CaMKIIδ (Homo sapiens (Human), UniProt Q13557); assay: CaMKIIδ biochemical assay (HTRF); settings: 10 pM CaMKIIδ, 110 nM calmodulin, 12 μM ATP, 1 hour; read-out: CAMKIID-HTRF-384V2 (IC50 - nM)
Protocol: CaMKIIδ Biochemical Assay
The biochemical activity of recombinant CaMKIIδ was measured by monitoring the phosphorylation of a target peptide using Homogenous Time Resolved Fluorescence (HTRF) technology from CisBio Bioassays.

Structure (SMILES)	IC50 [nM]
CCN(CC)[C@@H](C)CNC(=O)c1cc(NCC(=O)NC)nc(-c2cnn3ccc(-c4cccs4)nc23)c1 [Example 246, (S)—N-(2-(diethylamino)propyl)-2-((2-(methylamino)-2-oxoethyl)amino)-6-(5-(thiophen-2-yl)pyrazolo[1,5-a]pyrimidin-3-yl)isonicotinamide]	0.17
CCN(CC)[C@@H](C)CNC(=O)c1cc(-c2cnn3ccc(-c4cccs4)nc23)nc(N2CC(NC)C2)c1 [Example 205, (S)—N-(2-(diethylamino)propyl)-2-(3-(methylamino)azetidin-1-yl)-6-(5-(thiophen-2-yl)pyrazolo[1,5-a]pyrimidin-3-yl)isonicotinamide]	0.1
O=C(NC[C@@H]1CCCN1)c1ccnc(-c2cnn3ccc(-c4cccs4)nc23)c1 [Example 34, (S)—N-(pyrrolidin-2-ylmethyl)-2-(5-(thiophen-2-yl)pyrazolo[1,5-a]pyrimidin-3-yl)isonicotinamide]	12.4
CCN(CC)[C@@H](C)CNC(=O)c1cc(-c2cnn3ccc(-c4cccs4)nc23)nc(N2CCC(O)C(F)(F)C2)c1 (stereo partly drawn) [Example 156, N—((S)-2-(diethylamino)propyl)-2-(3,3-difluoro-4-hydroxypiperidin-1-yl)-6-(5-(thiophen-2-yl)pyrazolo[1,5-a]pyrimidin-3-yl)isonicotinamide]	0.85
O=C(c1ccnc(-c2cnn3ccc(-c4cccs4)nc23)c1)N1CC2CCC(C1)NC2 (centres unmarked) [Example 76]	3.47
CCN(CC)[C@@H](C)CNC(=O)c1cc(NC2CC2)nc(-c2cnn3ccc(-c4cccs4)nc23)c1 [Example 213, (S)-2-(cyclopropylamino)-N-(2-(diethylamino)propyl)-6-(5-(thiophen-2-yl)pyrazolo[1,5-a]pyrimidin-3-yl)isonicotinamide]	0.18
CCN(CC)[C@@H](C)CNC(=O)c1cc(-c2cnn3ccc(-c4cncnc4)nc23)nc(N2CC(OC)C2)c1 [Example 166, (S)—N-(2-(diethylamino)propyl)-2-(3-methoxyazetidin-1-yl)-6-(5-(pyrimidin-5-yl)pyrazolo[1,5-a]pyrimidin-3-yl)isonicotinamide]	26
C[C@@H](CNC(=O)c1ccnc(-c2cnn3ccc(-c4ccccc4)nc23)c1)NCc1ncccn1 [Example 49, (S)-2-(5-phenylpyrazolo[1,5-a]pyrimidin-3-yl)-N-(2-((pyrimidin-2-ylmethyl)amino)propyl) isonicotinamide]	391
C[C@@H](CNC(=O)c1ccnc(-c2cnn3ccc(-c4cccs4)nc23)c1)NCC(F)(F)F [Example 28, (S)-2-(5-(thiophen-2-yl)pyrazolo[1,5-a]pyrimidin-3-yl)-N-(2-((2,2,2-trifluoroethyl)amino)propyl)isonicotinamide]	53.4
CCN(CC)[C@@H](C)CNC(=O)c1cc(-c2cnn3ccc(-c4cccs4)nc23)nc(N2CCCS2(=O)=O)c1 [Example 167, (S)—N-(2-(diethylamino)propyl)-2-(1,1-dioxidoisothiazolidin-2-yl)-6-(5-(thiophen-2-yl)pyrazolo[1,5-a]pyrimidin-3-yl)isonicotinamide]	0.16
CCN(CC)[C@@H](C)CNC(=O)c1cc(-c2cnn3ccc(-c4cccs4)nc23)nc(N2CC3(CCC3(F)F)C2)c1 [Example 249, (S)—N-(2-(diethylamino)propyl)-2-(5,5-difluoro-2-azaspiro[3.3]heptan 2 yl)-6-(5-(thiophen-2-yl)pyrazolo[1,5-a]pyrimidin-3-yl)isonicotinamide]	0.2
CCN[C@@H](C)CNC(=O)c1cc(-c2cnn3ccc(-c4cccs4)nc23)nc(N2CC(O)C2)c1 [Example 169, (S)—N-(2-(ethylamino)propyl)-2-(3-hydroxyazetidin-1-yl)-6-(5-(thiophen-2-yl)pyrazolo[1,5-a]pyrimidin-3-yl)isonicotinamide]	9.11
CCN(CC)[C@@H](C)CNC(=O)c1cncc(-c2cnn3ccc(-c4cccs4)nc23)c1 [Example 362, (S)—N-(2-(diethylamino)propyl)-5-(5-(thiophen-2-yl)pyrazolo[1,5-a]pyrimidin-3-yl)nicotinamide]	0.52
CCN(CC)[C@@H](C)CNC(=O)c1cc(-c2cnn3ccc(-c4cccs4)nc23)nc(N2CC[C@H]2c2nc(C)no2)c1 [Example 308, N—((S)-2-(diethylamino)propyl)-2-((S)-2-(3-methyl-1,2,4-oxadiazol-5-yl)azetidin-1-yl)-6-(5-(thiophen-2-yl)pyrazolo[1,5-a]pyrimidin-3-yl)isonicotinamide]	0.71
COC1CN(c2cc(C(=O)NC[C@@H]3CCCN3)cc(-c3cnn4ccc(-c5cccs5)nc34)n2)C1 [Example 255, (S)-2-(3-methoxyazetidin-1-yl)-N-(pyrrolidin-2-ylmethyl)-6-(5-(thiophen-2-yl)pyrazolo[1,5-a]pyrimidin-3-yl)isonicotinamide]	33.9
CCN(CC)[C@@H](C)CNC(=O)c1cc(Cl)nc(-c2cnn3ccc(-c4cccs4)nc23)c1 [Example 103, (S)-2-chloro-N-(2-(diethylamino)propyl)-6-(5-(thiophen-2-yl)pyrazolo[1,5-a]pyrimidin-3-yl)isonicotinamide]	0.52
CCN(CC)[C@@H](C)CNC(=O)c1cc(-c2cnn3ccc(-c4cccs4)nc23)nc(N2CC[C@H]2COC)c1 [Example 265, N—((S)-2-(diethylamino)propyl)-2-((S)-2-(methoxymethyl)azetidin-1-yl)-6-(5-(thiophen-2-yl)pyrazolo[1,5-a]pyrimidin-3-yl)isonicotinamide]	0.42
CCN(CC)[C@@H](C)CNC(=O)c1cc(-c2cnn3ccc(-c4cccs4)nc23)nc(N2CC[C@@H]2C(=O)NC)c1 [Example 290, N—((S)-2-(diethylamino)propyl)-2-((R)-2-(methylcarbamoyl)azetidin-1-yl)-6-(5-(thiophen-2-yl)pyrazolo[1,5-a]pyrimidin-3-yl)isonicotinamide]	14.1
CCN(CC)[C@@H](C)CNC(=O)c1cc(NCC2COC2)nc(-c2cnn3ccc(-c4cccs4)nc23)c1 [Example 192, (S)—N-(2-(diethylamino)propyl)-2-((oxetan-3-ylmethyl)amino)-6-(5-(thiophen-2-yl)pyrazolo[1,5-a]pyrimidin-3-yl)isonicotinamide]	141
CN(C)c1cc(C(=O)N2CC[C@H](N)C2)cc(-c2cnn3ccc(-c4ccccc4)nc23)n1 [Example 125, (S)-(3-aminopyrrolidin-1-yl)(2-(dimethylamino)-6-(5-phenylpyrazolo[1,5-a]pyrimidin-3-yl)pyridin-4-yl)methanone]	267
CC(C)C[C@@]1(CNC(=O)c2ccnc(-c3cnn4ccc(-c5cccs5)nc34)c2)CCCN1 [Example 17, (R)—N-((2-isobutylpyrrolidin-2-yl)methyl)-2-(5-(thiophen-2-yl)pyrazolo[1,5-a]pyrimidin-3-yl)isonicotinamide]	7.47
CCN(CC)[C@@H](C)CNC(=O)c1cc(-c2cnn3ccc(-c4cccs4)nc23)nc(N2CC[C@H](OC)C2)c1 [Example 209, N—((S)-2-(diethylamino)propyl)-2-((S)-3-methoxypyrrolidin-1-yl)-6-(5-(thiophen-2-yl)pyrazolo[1,5-a]pyrimidin-3-yl)isonicotinamide]	0.17
CCN[C@H](C)CNC(=O)c1ccnc(-c2cnn3ccc(-c4ccccc4)nc23)c1 [Example 74, (R)—N-(2-(ethylamino)propyl)-2-(5-phenylpyrazolo[1,5-a]pyrimidin-3-yl)isonicotinamide]	34.2
